The text below walks through data of patent US10703740B2, “Substituted benzimidazoles, their preparation and their use as pharmaceuticals” (NEOMED Institute, priority 2015, dated 2020).

Molecules are shown by their SMILES.

In one assay the target is BRD4(BD1) (Homo sapiens (Human), UniProt O60885). Nature of the assay: In vitro bromodomain inhibition assay (AlphaLISA). The assay is classed as binding. The following applies: His-tagged BRD4 BD1 200 nM, biotinylated H4-tetraacetyl peptide 200 nM. Here is the method:
To measure activity of bromodomain inhibitors, a His-epitope tagged BRD4 BD149-170 is purchased from BPS Bioscience. BRD4 binding and inhibition is assessed by monitoring the engagement of biotinylated H4-tetraacetyl peptide (H4K5/8/12/16; AnaSpec #64989-025) with the target using the AlphaLISA technology (Perkin-Elmer). Specifically, in a 384 well OptiPlate, BRD4(BD1) (200 nM final) is pre-incubated with either DMSO (final 1.0% DMSO) or a compound dilution series in DMSO. All reagents are diluted in assay buffer containing 50 mM HEPES (pH 7.4), 100 mM NaCl, 0.1% (w/v) BSA, and 0.05% (w/v) CHAPS. After a 30 minute incubation at rt, H4 peptide is added (200 nM final) and the reaction is incubated an additional 30 minutes at rt. Alpha streptavidin donor beads and AlphaLISA nickel chelate acceptor beads are then added to a final concentration of 10 μg/mL each. After one hour, equilibration plates are read on an Envision instrument and IC50s calculated using a four parameter non-linear curve fit (results are shown in Table 1).
In general terms: Bead proximity is the source of the signal in Alpha formats.

For assay [1], the system named is human C-Myc transcription in MV-4-11 cells. Nature of the assay: Transcription of human C-Myc in human leukemic MV-4-11 cells (QuantiGene 2.0). Conditions: Homo sapiens, MV4-11, 4 h, inhibition of C-Myc mRNA, 4 hours treatment, read-out: IC50 MV-4-11 Cell. Type of assay: cell-based. Here is the method:
The effect of compounds on transcription of human C-Myc gene is monitored in human B-myelomonocytic leukemia cell line MV-4-11 (from American Type Culture Collection (ATCC), Manassas, Va., USA) using QuantiGene 2.0 assay kit (Affymetrix, Santa Clara, Calif., USA).
Typically, 8,000 MV-4-11 cells are plated in sterile 96-well plates (Costar #3598 from Fisher Scientific Canada, Ottawa, Ontario, Canada) in Iscove's medium supplemented with 10% fetal bovine serum, glutamine (2 mM), and penicillin (100 I.U.) and streptomycin (100 μg/mL) (all from Wisent Inc., St. Bruno, Quebec, Canada). Compounds are dissolved in DMSO at 30 mM. A series of 1:3 dilutions are first made in DMSO, and further 1:100 dilutions are made in serum-containing cell culture media. The final concentration of DMSO is 0.1% in cell culture media. After cells are treated with various concentrations of test compound for 4 hours, cells are lysed using Quantigene 2.0 sample processing kit (# QS0100). C-Myc mRNA is detected using a QuantiGene 2.0 assay kit (# QS0009) with gene-specific probe to human C-Myc (# SA-50182) following the manufacturer's recommendations. Luminescene signals are read on Flexstation II microplate reader (Molecular Devices, Sunnyvale, Calif., USA).

As a reminder, the IC50 is the midpoint of a concentration-inhibition curve. Take `CC(=O)N1CCC(c2nc3ccc(-c4cc(C)c(=O)n(C)c4)cc3n2CCOC(F)(F)F)CC1` [Compound 4, 5-[2-(1-acetyl-4-piperidyl)-3-[2-(trifluoromethoxy)ethyl]benzimidazol-5-yl]-1,3-dimethylpyridin-2-one]: the figures for the IC50 (at BRD4(BD1); in assay [1]) were 0.13 µM and 0.089 µM, respectively.

Turning to `COC[C@@H](C)n1c(C)nc2ccc(-c3cc(C)c(=O)n(C)c3)cc21` [Compound 11, 5-[3-[(1R)-2-methoxy-1-methyl-ethyl]-2-methyl-benzimidazol-5-yl]-1,3-dimethyl pyridin-2-one], the figures for the IC50 (on BRD4(BD1); in assay [1]) were 0.098 µM and 0.17 µM, respectively.

As to `Cc1cc(-c2ccc3nc(C4CCC4)n(CCOC(F)(F)F)c3c2)cn(C)c1=O` [Compound 6, 5-[2-cyclobutyl-3-[2-(trifluoromethoxy)ethyl]benzimidazol-5-yl]-1,3-dimethyl-pyridin-2-one], the IC50 came out at 0.091 µM against BRD4(BD1) and 0.056 µM in assay [1].

With `COCCn1c(C2CC2)nc2ccc(-c3cc(C)c(=O)n(C)c3)cc21` [Compound 7, 5-[2-cyclopropyl-3-(2-methoxyethyl)benzimidazol-5-yl]-1,3-dimethyl-pyridin-2-one], the IC50 worked out at 0.28 µM against BRD4(BD1) and 0.52 µM in assay [1].

As for `COC[C@@H](C)n1cnc2ccc(-c3cc(C)c(=O)n(C)c3)cc21` [Compound 12, 5-[3-[(1R)-2-methoxy-1-methyl-ethyl]benzimidazol-5-yl]-1,3-dimethyl-pyridin-2-one], the results for the IC50 (against BRD4(BD1); in assay [1]) were 0.33 µM and 0.55 µM, respectively.

Turning to `Cc1cc(-c2ccc3ncn(CCOC(F)(F)F)c3c2)cn(C)c1=O` [Compound 3, 1,3-dimethyl-5-[3-[2-(trifluoromethoxy)ethyl]benzimidazol-5-yl]pyridin-2-one], the IC50 at BRD4(BD1) is 0.31 µM; in assay [1] it was 0.095 µM.

On to `Cc1cc(-c2ccc3nc(C4CC4)n(CCOC(F)(F)F)c3c2)cn(C)c1=O` [Compound 2, 5-[2-cyclopropyl-3-[2-(trifluoromethoxy)ethyl]benzimidazol-5-yl]-1,3-dimethylpyridin-2-one], for which the IC50 came to 0.19 µM against BRD4(BD1) and 0.086 µM in assay [1].

For the compound `Cc1cc(-c2ccc3nc(C4CCOCC4)n(CCOC(F)(F)F)c3c2)cn(C)c1=O` [Compound 1, 1,3-dimethyl-5-[2-tetrahydropyran-4-yl-3-[2-(trifluoromethoxy)ethyl]benzimidazol-5-yl]pyridin-2-one], the IC50 came out at 0.14 µM on BRD4(BD1) and 0.076 µM in assay [1].

For `Cc1cc(-c2ccc3nc(C)n(CCOC(F)(F)F)c3c2)cn(C)c1=O` [Compound 5, 1,3-dimethyl-5-[2-methyl-3-[2-(trifluoromethoxy)ethyl]benzimidazol-5-yl]pyridin-2-one], the values for the IC50 (against BRD4(BD1); in assay [1]) were 0.19 µM and 0.23 µM, respectively.

Regarding `COC[C@@H](C)n1c(C2CC2)nc2ccc(-c3cc(C)c(=O)n(C)c3)cc21` [Compound 15, 5-[2-cyclopropyl-3-[(1R)-2-methoxy-1-methylethyl]benzimidazol-5-yl]-1,3-dimethyl pyridin-2-one], the IC50 on BRD4(BD1) was 0.1 µM; in assay [1], 0.24 µM.

As to `COCCn1c(C)nc2ccc(-c3cc(C)c(=O)n(C)c3)cc21` [Compound 8, 5-[3-(2-methoxyethyl)-2-methyl-benzimidazol-5-yl]-1,3-dimethylpyridin-2-one], the IC50 is 0.21 µM against BRD4(BD1) and 0.79 µM in assay [1].

In the case of `Cn1cc(-c2ccc3nc(C4CC4)n(CCOC(F)(F)F)c3c2)cc(C(F)(F)F)c1=O` [Compound 13, 5-[2-cyclopropyl-3-[2-(trifluoromethoxy)ethyl]benzimidazol-5-yl]-1-methyl-3-(trifluoromethyl)pyridin-2-one], the IC50 turned out to be 0.81 µM against BRD4(BD1) and 0.85 µM in assay [1].

Regarding `COCCn1c(C2CCOCC2)nc2ccc(-c3cc(C)c(=O)n(C)c3)cc21` [Compound 9, 5-[3-(2-methoxyethyl)-2-tetrahydropyran-4-yl-benzimidazol-5-yl]-1,3-dimethyl pyridin-2-one], the IC50 against BRD4(BD1) is 0.22 µM; in assay [1] it was 0.25 µM.

`COC[C@@H](C)n1c(C2CCOCC2)nc2ccc(-c3cc(C)c(=O)n(C)c3)cc21` [Compound 10, 5-[3-[(1R)-2-methoxy-1-methyl-ethyl]-2-tetrahydropyran-4-yl-benzimidazol-5-yl]-1,3-dimethyl-pyridin-2-one]: the IC50 on BRD4(BD1) stood at 0.099 µM; in assay [1], 0.062 µM.

Take `COCCn1c(CC2CCOCC2)nc2ccc(-c3cc(C)c(=O)n(C)c3)cc21` [Compound 42, 5-(1-(2-methoxyethyl)-2-((tetrahydro-2H-pyran-4-yl)methyl)-1H-benzo[d]imidazol-6-yl)-1,3-dimethylpyridin-2(1H)-one]: in assay [1], the IC50 came to 0.17 µM.
